# Measured values taken from patent US20080009546A1 (Chevron U.S.A. Inc., priority 2005, published 2008).
# Like-named read-outs stand apart in the source and are kept apart here.
# Key:
# NMDA receptor = assay: Whole-cell voltage-clamp recordings of NMDA evoked currents in hypocretin neurons (hypothalamic slices); type: cell-based, mouse; conditions: for inhibition of the peak amplitude of NMDA evoked currents: bath application, -60 mV, mean±SEM
# [1] = test system: primary neurons from rat cerebral cortex; assay: NMDA-induced LDH release assay in primary cortical neurons (neuroprotection); type: cell-based
# Procedure: The neuroprotective properties of drugs have been studied in vitro, using neurons cultured from cortex, cerebellum or retina. […] Neurotoxicity is determined in this assay by measuring lactate dehydrogenase (LDH), a method which is simple, accurate and reproducible. We conducted pilot studies to test if poly-lysine-coated plates would be suitable as a matrix upon which to plate fetal neurons, compared to astrocyte-coated plates. We also compared the use of growth medium to neurobasal medium supplemented with B27 in the pilot experiments. The concentrations of NMDA (300-500 μM), glycine (10-50 μM), and memantine (10-100 μM) were varied, and optimum concentrations and times determined from these pilot studies were then chosen for the main study. The assay is described below.
# Fetal rat neocortical cells were cultured on a mouse astroglial feeder layer. To obtain mouse astroglial cells for the feeder layer, cortices were harvested from 1-day old Swiss Webster mice (Charles River, Hollister, Calif.) according to the procedure described by Rose et al (1993). After dissecting cortices in ice-cold dissecting medium, they were minced and incubated in 0.09% trypsin in media stock for 1 hr, followed by resuspension in growth medium containing 10% equine serum and 10% fetal bovine serum. A single-cell suspension was obtained by triturating through fire-bored glass pipettes, and the resulting cell suspension was plated at a density of 0.5-0.75 hemispheres/24-well plate/9.6 ml, with 0.4 ml/well. Plates were incubated in a humidified incubator at 37° C., 5% CO2. Astroglial cells become confluent in about 2-3 weeks, at which time these cultures are ready to be used as feeder layers upon which neuronal cultures can be plated. Neuronal cells were obtained from gestational Sprague-Dawley rats E16-E18, using a similar dissection procedure. Rat embryos were dissected to obtain cortical tissue, which was plated as a single-cell suspension at a density of 1.4 hemispheres/24-well plate/9.6 ml, with 0.4 ml/well. These cells were plated on the existing astroglial feeder layer, and were incubated at 37° C., 5% CO2. After 5 days in culture, cytosine arabinoside (10 μM) was added to the wells to inhibit glial cell proliferation, and after 24 hours, the medium was replaced with fresh growth medium. Cells were fed with fresh growth medium every 2 days, until the experiments were performed. For coating plates with poly-lysine, we used poly-d-lysine hydrobromide (Sigma Cat # P7280) at a concentration of 0.1 mg/ml to coat each well using a minimum volume of 0.2 ml/well. After coating for 5 minutes, the solution was aspirated and wells were rinsed thoroughly with sterile tissue culture grade water. After drying for 2 hours, plates were ready for use. Neuronal cultures were plated onto poly-lysine-coated plates at the same density as above. For the pilot study, some of the cultures were fed with 1:1 ratio of growth medium: neurobasal medium (GIBCO)+B-27 supplement (2%), while the rest of the cultures were fed with growth medium alone (Losi et al., 2006). For the main study, we used astroglial feeder layers to plate the neuronal cultures, and used a mix (1:1) of growth medium with neurobasal medium+B-27 supplement for feeding the cultures.
# After 11-14 days in culture, neuronal cells were confluent and experiments were performed. Cells were washed twice using sterile Locke's buffer (154 mM NaCl, 5.6 mM KCl, 2.3 mM CaCl2, 3.6 mM NaHCO3, 5.5 mM D-glucose, 5 mM HEPES, pH 7.4), and then exposed to the various treatment compounds. […] After 15 minutes, cultures were washed twice and incubated overnight in media stock. After 24 hours, supernatants and lysates were collected to measure LDH activity. LDH activity was measured by the reduction of NAD, which was utilized in the stoichiometric conversion of a tetrazolium dye using a kit (Sigma TOX-7). Supernatants were removed from the wells and centrifuged before LDH measurements. The adherent cells were lysed to obtain total LDH. […]
# C57/BL6 male mice [2] = assay: Pentylenetetrazol (PTZ)-induced seizure/death model; type: in vivo, mouse; conditions: for PTZ-induced death / # of deaths within 30 min: PTZ 100 mg/kg; for # of deaths within 30 min / # mice with L3 seizure / # mice with L4 seizure: 6 mice; for Time to death: mice that died within 30 min
# Procedure: Although the protection against death is the key endpoint, other effects of the compounds on PTZ-induced seizures were also assessed using multiple parameters. For the mice that did die within the 30 minute observation window, the time of death was also compared. […] The seizure occurrence rate, onset time and number of level 3 (L3) seizure (repetitive seizures but the animal can still stand) and level 4 (L4) seizure (repetitive seizures and the animal loses righting) are also analyzed. The MDT compound (30 mg/kg) treated groups show a certain degree of improvement compared to control. No data from MK801 or memantine were included because the seizures occurring under these treatments are totally different from the control or MDT injected groups due to side effects (“high jumping”).
# C57/BL6 male mice [3] = assay: Rotarod test (balance and coordination, side effects)
# Procedure: The side effects of the compounds was primarily evaluated using the rotarod test, which mainly assesses the balancing and coordination of mice. The comparisons were made on fall time of the mice between the first measure (pre-treatment) and second measure taken 20 min after the drug/vehicle injection in the same group (paired t-test). […] Comparisons of the rotatod fall times after drug/vehicle dosing were made between drug treatment and control groups (unpaired t-test).
# C57/BL6 male mice [4] = conditions: for MES-induced death: mice; for # of deaths / # of extensions: 6 mice
# [5] = NMDA 300 uM + MK801 1 uM, Plate #4, poly-lysine-coated rat neurons, GM/NB + B-27 fed, 24 hour incubation
# [6] = NMDA 300 uM + MK801 1 uM, Plate #5, astrocyte-coated rat neurons, GM fed, 24 hour incubation
# [7] = NMDA 300 uM + MK801 1 uM, astrocyte-coated rat neurons, GM/NB + B-27 fed, 24 hour incubation
# [8] = NMDA 500 μM + MK801 1 μM, astrocyte-coated rat neurons, GM/NB + B-27 fed, 21 hour incubation
# [9] = NMDA 500 uM + MK801 1 uM, poly-lysine-coated rat neurons, GM/NB + B-27 fed, 40 hour incubation
smiles,measurement,setting,value
"C[C@]12N[C@H](Cc3ccccc31)c1ccccc12 [MK-801, reference compound]",inhibition of the peak amplitude of NMDA evoked currents,NMDA receptor; 100 nM,58±9.4%
same,% (Control Wash = 100),[1]; [5],143%
same,Secreted LDH (Avg),[1]; [5],0.62
same,Secreted/(total + secreted) (Avg),[1]; [5],15.63
same,Total LDH (Avg),[1]; [5],3.34
same,% (Control Wash = 100),[1]; [6],92%
same,Secreted LDH (Avg),[1]; [6],0.18
same,Secreted/(total + secreted) (Avg),[1]; [6],5.43
same,Total LDH (Avg),[1]; [6],3.18
same,% (Control Wash = 100),[1]; [7],241%
same,Secreted LDH (Avg),[1]; [7],0.74
same,Secreted/(total + secreted) (Avg),[1]; [7],17.39
same,Total LDH (Avg),[1]; [7],3.51
same,% (Control Wash = 100),[1]; [8],125%
same,Secreted LDH (Avg),[1]; [8],0.43
same,Secreted/(total + secreted) (Avg),[1]; [8],10.39
same,Total LDH (Avg),[1]; [8],3.71
same,% (Control Wash = 100),[1]; [9],96%
same,Secreted LDH (Avg),[1]; [9],0.36
same,Secreted/(total + secreted) (Avg),[1]; [9],11.04
same,Total LDH (Avg),[1]; [9],2.90
same,Mortality rate,C57/BL6 male mice [2]; 1.0 mg/kg i.p.,0
same,PTZ-induced death,C57/BL6 male mice [2]; 1 mg/kg i.p.,full protection
same,# of deaths within 30 min,C57/BL6 male mice [2]; 1.0 mg/kg i.p.,0
same,hyperactivity (side effect),C57/BL6 male mice [3]; 1 mg/kg i.p.,observed
same,Extension rate,C57/BL6 male mice [4]; 0.5 mg/kg i.p.,0.50
same,Mortality rate,C57/BL6 male mice [4]; 0.5 mg/kg i.p.,0.50
same,MES-induced death,C57/BL6 male mice [4]; 0.5 mg/kg i.p.,little effect compared to control
same,# of deaths,C57/BL6 male mice [4]; 0.5 mg/kg i.p.,3
same,# of extensions,C57/BL6 male mice [4]; 0.5 mg/kg i.p.,3
"CC12CC3CC4C1CC1(N)CC2C(C3)C4(C)C1 [MDT-23, 4-amino-1,6-dimethyl-diamantane]",inhibition of the peak amplitude of NMDA evoked currents,NMDA receptor; 10 μM,11.6±4.3%
same,inhibition of the peak amplitude of NMDA evoked currents,NMDA receptor; 100 μM,22.9±9.3%
same,reversibility of inhibition of NMDA evoked currents upon washout,NMDA receptor; washout of the compound,not reversible
same,EC50,"[1]; Rattus norvegicus, Primary neuron, two experiments, 300 uM NMDA + 50 μM glycine 15 minutes, LDH after 24 hours, read-out: average EC50 (±SD), NMDA-induced LDH release",11.1 ± 9.3 µM
same,# L3 per mouse,C57/BL6 male mice [2]; 10 mg/kg i.p.,4.67 ± 1.65
same,# L4 per mouse,C57/BL6 male mice [2]; 10 mg/kg i.p.,1.67 ± 0.49
same,L3 onset time,C57/BL6 male mice [2]; 10 mg/kg i.p.,3.00 ± 0.20 min
same,L3 seizure rate,C57/BL6 male mice [2]; 10 mg/kg i.p.,0.50
same,L4 onset time,C57/BL6 male mice [2]; 10 mg/kg i.p.,13.80 ± 4.40 min
same,L4 seizure rate,C57/BL6 male mice [2]; 10 mg/kg i.p.,1.00
same,Mortality rate,C57/BL6 male mice [2]; 10 mg/kg i.p.,0.50
same,# mice with L3 seizure,C57/BL6 male mice [2]; 10 mg/kg i.p.,3
same,# mice with L4 seizure,C57/BL6 male mice [2]; 10 mg/kg i.p.,6
same,# of deaths within 30 min,C57/BL6 male mice [2]; 10 mg/kg i.p.,3
same,Time to death,C57/BL6 male mice [2]; 10 mg/kg i.p.,14.00 ± 6.60 min
same,# L3 per mouse,C57/BL6 male mice [2]; 30 mg/kg i.p.,3.83 ± 2.44
same,# L4 per mouse,C57/BL6 male mice [2]; 30 mg/kg i.p.,1.00 ± 0.0
same,L3 onset time,C57/BL6 male mice [2]; 30 mg/kg i.p.,5.00 ± 1.90 min
same,L3 seizure rate,C57/BL6 male mice [2]; 30 mg/kg i.p.,1.00
same,L4 onset time,C57/BL6 male mice [2]; 30 mg/kg i.p.,19.80 ± 4.20 min
same,L4 seizure rate,C57/BL6 male mice [2]; 30 mg/kg i.p.,1.00
same,Mortality rate,C57/BL6 male mice [2]; 30 mg/kg i.p.,1.00
same,average time of death,"C57/BL6 male mice [2]; 30 mg/kg i.p., mice that died within 30 minute window",22 ± 2.9 min
same,# mice with L3 seizure,C57/BL6 male mice [2]; 30 mg/kg i.p.,6
same,# mice with L4 seizure,C57/BL6 male mice [2]; 30 mg/kg i.p.,6
same,# of deaths within 30 min,C57/BL6 male mice [2]; 30 mg/kg i.p.,6
same,Time to death,C57/BL6 male mice [2]; 30 mg/kg i.p.,22.00 ± 2.90 min
same,PTZ-induced death,"C57/BL6 male mice [2]; 10 and 30 mg/kg i.p., 30 min observation",a certain reduction in PTZ-induced death
same,PTZ-induced death,"C57/BL6 male mice [2]; high dose 30 mg/kg i.p., 30 min observation",died within 30 minutes
same,Fall Time,"C57/BL6 male mice [3]; after, 20 min after 10 mg/kg i.p.",42.98 ± 2.82 min
same,Fall Time,"C57/BL6 male mice [3]; after, 20 min after 30 mg/kg i.p.",31.37 ± 3.83 min
same,Fall Time,"C57/BL6 male mice [3]; before (pre-treatment), 10 mg/kg group",28.63 ± 3.10 min
same,Fall Time,"C57/BL6 male mice [3]; before (pre-treatment), 30 mg/kg group",39.77 ± 6.14 min
same,"rotarod fall time, pre-treatment vs 20 min after injection","C57/BL6 male mice [3]; high dose 30 mg/kg i.p., paired t-test",loss of performance
same,rotarod performance after dosing vs. control,"C57/BL6 male mice [3]; high dose 30 mg/kg i.p., unpaired t-test",statistically significant decreases in rotarod performance
same,Extension rate,C57/BL6 male mice [4]; 10 mg/kg i.p.,1.00
same,Mortality rate,C57/BL6 male mice [4]; 10 mg/kg i.p.,0.67
same,# of deaths,C57/BL6 male mice [4]; 10 mg/kg i.p.,4
same,# of extensions,C57/BL6 male mice [4]; 10 mg/kg i.p.,6
same,Extension rate,C57/BL6 male mice [4]; 30 mg/kg i.p.,1.00
same,Mortality rate,C57/BL6 male mice [4]; 30 mg/kg i.p.,0.17
same,# of deaths,C57/BL6 male mice [4]; 30 mg/kg i.p.,1
same,# of extensions,C57/BL6 male mice [4]; 30 mg/kg i.p.,6
same,MES-induced death,C57/BL6 male mice [4]; 10 and 30 mg/kg i.p.,dose dependent reduction in MES-induced death
